Laboratory results published in publication PMC7127338 (Bioorganic & Medicinal Chemistry Letters, 2013).
“Also recorded” adds a separate entry of the source.

Tests used:
[1] = Stability study at −20 °C; type: physicochemical
[2] = Stability study at different pH values; type: physicochemical; settings: 2 days

| Purity after 1 h ([1]; 1 h after purification by column chromatography) | Purity after 13 h ([1]; 13 h (one night) at −20 °C) | Purity after 20 h ([1]; 20 h, −20 °C) | SMILES | Stability study at pH 5 (degradation) ([2]; pH 5 (acidic)) | Stability study at pH 7 (degradation) ([2]; pH 7 (neutral)) | Stability study at −20 °C (degradation) ([1]; storage at −20 °C) |
| --- | --- | --- | --- | --- | --- | --- |
| 68% | 30% | 8% | C[C@H](NP(=O)(Oc1ccccc1)O[C@H]1O[C@H](CO)[C@@H](O)[C@@H]1F)C(=O)OC1CCCCC1 (stereo partly drawn) [compound 14b, 2-deoxy-2-fluoro-D-arabinofuranose 1-O-phenyl-(cyclohexoxy-alaninyl)-phosphate] | – | – | – |
| – | – | – | C[C@H](NP(=O)(Oc1ccccc1)O[C@H]1O[C@H](CO)[C@@H](O)C1(F)F)C(=O)OC1CCCCC1 (stereo partly drawn) [compound 25c, 2-deoxy-2,2-difluoro-D-ribofuranose 1-O-phenyl-(cyclohexoxy-alaninyl)-phosphate] | no degradation at all after 2 days; also recorded: No degradation observed over 2 days | no degradation at all after 2 days; also recorded: No degradation observed over 2 days | no degradation at all after 4 months; also recorded: No degradation observed after 4 months |
